Measurements taken from patent publication US12686676B2, “Compound, endothelin-A receptor antagonist, and pharmaceutical composition” (Alchemedicine, Inc., priority 2021, dated 2026).

Columns and labels:
[1] = target: T1, human endothelin B receptor (Homo sapiens, UniProt P24530); assay: Endothelin B receptor inhibitory effect (aequorin light emission, endothelin at EC80); type: cell-based; conditions: for IC50: CHO-K1-mt aequorin cells expressing human endothelin B receptor, endothelin at EC80, read-out: ETB receptor inhibitory effect
T1 construct: expressed in transfected cells; host or cells: CHO-K1-mt aequorin cells
T1 sequence (P24530 27-442): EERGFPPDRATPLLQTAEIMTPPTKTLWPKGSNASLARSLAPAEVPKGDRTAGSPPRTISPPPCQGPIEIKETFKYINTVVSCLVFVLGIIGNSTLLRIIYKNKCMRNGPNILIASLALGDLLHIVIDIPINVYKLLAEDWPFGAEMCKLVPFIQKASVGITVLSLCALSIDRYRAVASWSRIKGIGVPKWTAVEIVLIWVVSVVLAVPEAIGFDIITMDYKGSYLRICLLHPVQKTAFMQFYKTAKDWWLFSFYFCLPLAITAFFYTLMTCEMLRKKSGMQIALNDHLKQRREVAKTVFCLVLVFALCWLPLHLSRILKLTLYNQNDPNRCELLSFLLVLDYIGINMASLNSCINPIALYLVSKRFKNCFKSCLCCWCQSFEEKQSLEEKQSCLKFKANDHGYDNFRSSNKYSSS
Protocol: The inhibitory effect on an endothelin B receptor was studied by the following method.
CHO-K1-mt aequorin cells forced to express a human endothelin B receptor (Accession Number NP_000106.1) were cultured in an antibiotic-free medium for 18 hours, then treated with PBS-EDTA (5 mM EDTA), centrifuged (2 min, 405×g, room temperature), and then suspended in an assay buffer (DMEM/HAM's F12 with HEPES+0.1% BSA protease free).
1×10^6 cells/mL of the cells were incubated at room temperature for 4 hours in the presence of coelenterazine h (Molecular Probes, Inc.) (final concentration: 5 µM). Agonistic reaction based on endothelin was confirmed to determine an endothelin concentration corresponding to EC80.
Subsequently, 50 µL (10000 cells/well) of the cell suspension treated with coelenterazine h and 50 µL of an assay buffer containing a test substance (final concentration: 0.5% in DMSO) were added to each well of a 96-well plate. 15 minutes later, endothelin was added such that its final concentration was an EC80 concentration. Receptor activity was measured as the quantity of light emission in FDSS6000 (Hamamatsu Photonics K.K.).

CYP2C9 = target: T2, CYP2C9 (Homo sapiens, UniProt P11712); assay: CYP2C9 inhibitory effect (liver microsome fraction, diclofenac substrate); type: in vitro ADME; conditions: liver microsome fraction 0.5 mg/mL, diclofenac 2.5 μM
T2 construct: A frozen liver microsome fraction was thawed on ice; from tissue; host or cells: liver microsome fraction
Protocol: The inhibitory effect on CYP2C9 was evaluated by the following method. • (1) A frozen liver microsome fraction was thawed on ice and diluted with a potassium phosphate buffer (PPB) to a final concentration of 0.5 mg/mL. • (2) A substrate for evaluation (diclofenac: D6899 from Sigma-Aldrich Co. LLC) was added thereto such that its final concentration was 2.5 μM. • (3) The mixture was slowly mixed and incubated at 37±1° C. for 5 minutes to prepare a reaction solution. • (4) 801 μL of the reaction solution was dispensed to each tube, and an evaluation compound serially diluted with 0.9 μL of DMSO was added thereto such that its final concentration was 9.1 to 20000 nM (⅓ dilutions with 8 concentrations). In this context, 0.9 μL of DMSO was added to a negative control group, and 0.9 μL of sulfaphenazole (S0758 from Sigma-Aldrich Co. LLC) adjusted to a final concentration of 1 μM with DMSO was added to a positive control group. • (5) After mixing, a 270 μL aliquot was transferred to each of two fresh tubes and incubated in a shaking water bath at 37±1° C. for 5 minutes. • (6) Reaction was started by the addition of 30 μL of 10 mM NADPH, and the tubes were incubated at 37° C.±1° C. for 10 minutes. • (7) The tubes were taken out of the shaking water bath, and the reaction was terminated by the addition of 300 μL of a reaction stop solution. After mixing, the tubes were centrifuged at 1021×g at 4° C. for 20 minutes. • (8) The amount of the substrate for evaluation metabolized was determined by LC-MS/MS to calculate the rate of inhibition at each concentration of the evaluation compound. • (9) IC50 values were calculated using GraphPad Prism5. A sample having an IC50 value of 1 μM or lower was given “++”; a sample having an IC50 value in the range of higher than 1 μM and 10 μM or lower was given “+”; and a sample having an IC50 value of higher than 10 μM was given “−”.

[2] = Metabolic stability in human liver microsome; type: in vitro ADME; conditions: after 30 minutes with NADPH; note: tested at 0.99 µM
Protocol: The metabolic stability in a human liver microsome was evaluated by the following method.
• (1) Human liver microsome: 20 mg/mL • (2) Test compound: 1.1 mM solution in DMSO • (3) Potassium phosphate buffer solution: 66.7 mM (pH 7.4) • (4) NADPH solution: 10 mM in a potassium phosphate buffer solution • (5) Quenching solution: 0.5% formic acid solution in acetonitrile containing warfarin as an internal standard 2. Method
(§1) 971.5 μL of the potassium phosphate buffer solution and 27.5 μL of the human liver microsome were placed in a propylene tube and suspended. 1 μL of the test compound was added thereto, and a 180 μL aliquot of this mixture was transferred to a fresh tube. The mixture was preincubated at 37° C. for 5 minutes. Then, 20 μL of the NADPH solution (for an incubation time of 30 minutes) or 20 μL of the potassium phosphate buffer solution (for an incubation time of 0 minutes) was added thereto. After incubation, the reaction was terminated by the addition of 200 μL of the quenching solution. Subsequently, the tube was centrifuged at 3220×g for 20 minutes, and the concentration of an unchanged form of the test compound in […] of a supernatant was measured by LC-MS/MS. On the basis of the obtained peak area of the unchanged form, the residual rate (%) of the unchanged form was calculated using the rate of 0 minutes of incubation time as 100%.

[3] = Metabolic stability in mouse liver microsome; type: in vitro ADME; conditions: after 30 minutes with NADPH; note: tested at 0.99 µM
Protocol: as §1
The metabolic stability in a mouse liver microsome was evaluated by the same method as above except that the mouse liver microsome was used instead of the human liver microsome.

T2 sequence (P11712 whole entry): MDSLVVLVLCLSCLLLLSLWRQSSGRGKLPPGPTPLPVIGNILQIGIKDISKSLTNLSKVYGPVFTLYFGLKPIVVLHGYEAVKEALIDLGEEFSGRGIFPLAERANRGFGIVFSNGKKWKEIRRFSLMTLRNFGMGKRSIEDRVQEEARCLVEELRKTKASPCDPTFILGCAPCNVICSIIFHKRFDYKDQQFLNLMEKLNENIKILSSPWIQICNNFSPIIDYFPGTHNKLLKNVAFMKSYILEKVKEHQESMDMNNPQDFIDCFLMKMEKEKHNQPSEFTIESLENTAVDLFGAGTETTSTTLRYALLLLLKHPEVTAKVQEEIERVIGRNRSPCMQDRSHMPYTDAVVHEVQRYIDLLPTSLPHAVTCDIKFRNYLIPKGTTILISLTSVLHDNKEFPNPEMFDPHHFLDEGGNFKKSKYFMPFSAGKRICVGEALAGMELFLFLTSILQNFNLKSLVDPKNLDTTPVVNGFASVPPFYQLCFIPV

SMILES | IC50 [1] | IC50 (CYP2C9) | Metabolic stability (human), residual rate of the unchanged form [2] | Metabolic stability (mouse), residual rate of the unchanged form [3] | inhibition at 5 µM ([1]; at 5000 nM, read-out: ETB receptor inhibitory effect, % inhibition)
Cc1cc2c(cc1C#Cc1ncccc1S(=O)(=O)Nc1noc(C)c1C)C(C)(C)OC2 [Example 1, N-(4,5-Dimethylisoxazol-3-yl)-2-((3,3,6-trimethyl-1,3-dihydroisobenzofuran-5-yl)ethynyl)pyridine-3-sulfonamide] | > 5 µM | > 10 µM | 59% | 85% | 
Cc1cc2c(cc1C#Cc1ncccc1S(=O)(=O)Nc1noc(C)c1C)C(=O)OC2 [Example 4, N-(4,5-Dimethylisoxazol-3-yl)-2-((6-methyl-3-oxo-1,3-dihydroisobenzofuran-5-yl)ethynyl)pyridine-3-sulfonamide] | > 5 µM | > 10 µM | 49% | 91% | 
Cc1cc2c(cc1C#Cc1ncccc1S(=O)(=O)Nc1onc(C)c1C)C(C)(C)OC2 [Example 8, N-(3,4-Dimethylisoxazol-5-yl)-2-((3,3,6-trimethyl-1,3-dihydroisobenzofuran-5-yl)ethynyl)pyridine-3-sulfonamide] | > 5 µM | > 10 µM | 73% | 40% | 
Cc1onc(NS(=O)(=O)c2cccnc2C#Cc2ccc3c(c2)COC3)c1C [Example 5, 2-((1,3-Dihydroisobenzofuran-5-yl)ethynyl)-N-(4,5-dimethylisoxazol-3-yl)pyridine-3-sulfonamide] | > 5 µM | > 10 µM | 63% | 90% | 
Cc1cc2c(cc1C#Cc1ncccc1S(=O)(=O)Nc1noc(C)c1C)COC2 [Example 3, N-(4,5-Dimethylisoxazol-3-yl)-2-((6-methyl-1,3-dihydroisobenzofuran-5-yl)ethynyl)pyridine-3-sulfonamide] | > 5 µM | > 10 µM | 47% | 85% | 
COc1nc(C)cnc1NS(=O)(=O)c1cccnc1C#Cc1cc2c(cc1C)COC2(C)C [Example 10, N-(3-Methoxy-5-methylpyrazin-2-yl)-2-((3,3,6-trimethyl-1,3-dihydroisobenzofuran-5-yl)ethynyl)pyridine-3-sulfonamide] | > 5 µM | > 10 µM | 66% | 68% | 

The remaining lines, values ahead:

IC50 [1] | IC50 (CYP2C9) | Metabolic stability (human), residual rate of the unchanged form [2] | Metabolic stability (mouse), residual rate of the unchanged form [3] | inhibition at 5 µM ([1]; at 5000 nM, read-out: ETB receptor inhibitory effect, % inhibition) | SMILES
> 5 µM | 1 to 10 µM | 28% | 5% |  | Cc1cc2c(cc1C#Cc1ncccc1S(=O)(=O)Nc1onc(C)c1Cl)C(C)(C)OC2 [Example 9, N-(4-Chloro-3-methylisoxazol-5-yl)-2-((3,3,6-trimethyl-1,3-dihydroisobenzofuran-5-yl)ethynyl)pyridine-3-sulfonamide]
> 5 µM | 1 to 10 µM | 56% | 54% |  | Cc1onc(NS(=O)(=O)c2cccnc2C#Cc2cc3c(cc2Cl)COC3)c1C [Example 6, 2-((6-Chloro-1,3-dihydroisobenzofuran-5-yl)ethynyl)-N-(4,5-dimethylisoxazol-3-yl)pyridine-3-sulfonamide]
 | 1 to 10 µM | 44% | 81% | 57% | Cc1cc2c(cc1C#Cc1ncccc1S(=O)(=O)Nc1noc(C)c1Cl)C(C)(C)OC2 [Example 7, N-(4-Chloro-5-methylisoxazol-3-yl)-2-((3,3,6-trimethyl-1,3-dihydroisobenzofuran-5-yl)ethynyl)pyridine-3-sulfonamide]
